Results from patent US20050107400A1, “Use of pyrazolopyridines as therapeutic compounds” (priority 2001, published 2005).

Test system: HSV-1
Test: HSV-1 replication in infected Vero 76 cells, DNA hybridization capture assay
Type: cell-based, herpes simplex virus 1
Conditions: Human alphaherpesvirus 1; HSV-1 in Vero 76 cells, MOI=0.001, 40-48 hours at 37° C.; read-out: IC50
Experimental: a) Tissue Culture and HSV Infection.
Vero 76 cells were maintained in MEM with Earle's salts, L-glutamine, 8% FBS (Hyclone, A-1111-L) and 100 units/mL Penicillin-100 μg/mL Streptomycin. For assay conditions, FBS was reduced to 2%. Cells are seeded into 96-well tissue culture plates at a density of 5×10^4 cells/well after being incubated for 45 min at 37° C. in the presence of HSV-1 or HSV-2 (MOI=0.001). Test compounds are added to the wells and the plates are incubated at 37° C. for 40-48 hours. Cell lysates are prepared as follows: media was removed and replaced with 150 μL/well 0.2 N NaOH with 1% Igepal CA 630 or NP-40. Plates were incubated up to 14 days at room temperature in a humidified chamber to prevent evaporation.
(b) Preparation of Detection DNA.
For the detection probe, a gel-purified, digoxigenin-labeled, […] PCR fragment of the HSV UL-15 sequence was utilized. PCR conditions included 0.5 μM primers, 180 μM dTTP, 20 μM dUTP-digoxigenin (Boehringer Mannheim 1558706), 200 μM each of dATP, dCTP, and dGTP, 1×PCR Buffer II (Perkin Elmer), 2.5 mM MgCl2, 0.025 units/μL of AmpliTaq Gold polymerase (Perkin Elmer), and 5 ng of gel-purified HSV DNA per 100 μL Extension conditions were 10 min at 95° C., followed by 30 cycles of 95° C. for 1 min, 55° C. for 30 sec, and 72° C. for 2 min. The amplification was completed with a 10-min incubation at 72° C. Primers were selected to amplify a 728 bp probe spanning a section of the HSV1 UL15 open reading frame (nucleotides 249-977). Single-stranded transcripts were purified with Promega M13 Wizard kits. The final product was mixed 1:1 with a mixture of 6 M GuSCN, 100 mM EDTA and 200 μg/mL herring sperm DNA and stored at 4° C.
(c) Preparation of Capture Plates.
The capture DNA plasmid (HSV UL13 region in pUC) was linearized by cutting with Xba I, denatured for 15 min at 95° C. and diluted immediately into Reacti-Bind DNA Coating Solution (Pierce, 17250, diluted 1:1 with TE buffer, pH 8) at 1 ng/μL. 75 μL/well were added to Corning (#3922 or 9690) white 96-well plates and incubated at room temperature for at least 4 hrs before washing twice with 300 μL/well 0.2×SSC/0.05% Tween-20 (SSC/T buffer). The plates were then incubated overnight at room temperature with 150 μL/well 0.2 N NaOH, 1% IGEPAL and 10 μg/mL herring sperm DNA.
Twenty-seven (27) μL of cell lysate was combined with 45 μL of hybridization solution (final concentration: 3M GuSCN, 50 mM EDTA, 100 μg/ml salmon sperm DNA, 5×Denhardt's solution, 0.25×APE, and 5 ng of the digoxigenin-labeled detection probe). APE is 1.5 M NH4-acetate, 0.15 M NH4H2 phosphate, and 5 mM EDTA adjusted to pH 6.0. Mineral oil (50 μL) was added to prevent evaporation. The hybridization plates were incubated at 95° C. for 10 minutes to denature the DNA, then incubated at 42° C. overnight. The wells were washed 6× with 300 μL/well SSC/T buffer then incubated with 75 μL/well anti-digoxigenin-HRP-conjugated antibody (Boehringer Mannheim 1207733, 1:5000 in TE) for 30 min at room temperature. The wells were washed 6× with 300 μL/well with PBS/0.05% Tween-20 before 75 μL/well SuperSignal LBA substrate (Pierce) was added. The plates were incubated at room temperature for 30 minutes and chemiluminescence was measured in a Wallac Victor reader.
The following results were obtained for HSV-1.

Row | IC50 | Structure (SMILES)
1 | 15 µM | Fc1ccc(-c2nn3c(OCC(F)(F)F)cccc3c2-c2ccnc(Oc3ccccc3)n2)cc1 [Example 67, 2-(4-Fluorophenyl)-3-(4-(2-phenyloxy)pyrimidinyl)-7-(2,2,2-trifluoroethoxy)pyrazolo[1,5-a]pyridine]
2 | 1 µM | CCCCNc1nccc(-c2c(-c3ccc(F)cc3)nn3c(C)cccc23)n1 [Example 85, N-Butyl-4-[2-(4-fluorophenyl)-7-methylpyrazolo[1,5-a]pyridin-3-yl]-2-pyrimidinamine]
3 | 3.6 µM | Fc1ccc(-c2nn3ccc(N4CCOCC4)cc3c2-c2ccnc(NC3CCCC3)n2)cc1 [Example 89, N-Cyclopentyl-4-[2-(4-fluorophenyl)-5-morpholin-4-ylpyrazolo[1,5-a]pyridin-3-yl]pyrimidin-2-amine]
4 | 5 µM | Fc1ccc(-c2nn3ccc(Cl)cc3c2-c2ccnc(NC3CCCC3)n2)cc1 [Example 36, 4-[5-Chloro-2-(4-fluorophenyl)pyrazolo[1,5-a]pyridin-3-yl]-N-cyclopentyl-2-pyrimidinamine]
5 | 5.5 µM | NC(=O)c1ccc2c(-c3ccnc(NCCCO)n3)c(-c3ccc(F)cc3)nn2c1 [Example 25, 2-(4-Fluorophenyl)-3-(4-(2-(3-hydroxypropyl)amino)pyrimidinyl)-6-pyrazolo-[1,5-a]pyridinylcarboxamide]
6 | 21.6 µM | CN(C)c1cc(-c2c(-c3ccc(F)cc3)nn3cccc(F)c23)ccn1 [Example 41, 4-[4-Fluoro-2-(4-fluorophenyl)-pyrazolo[1,5-a]pyridin-3-yl]-N,N-dimethyl-2-pyridinamine]
7 | 0.9 µM | Fc1ccc(-c2nn3c(OCC(F)(F)F)cccc3c2-c2ccnc(NC3CCCCC3)n2)cc1 [Example 64, N-Cyclohexyl-4-[2-(4-fluorophenyl)-7-(2,2,2-trifluoroethoxy)pyrazolo[1,5-a]pyridin-3-yl]-2-pyrimidinamine]
8 | 1.7 µM | O=C1CCCN1CCCNc1cc(-c2c(-c3ccc(F)cc3)nn3ccccc23)ccn1 [Example 39, 1-[3-({4-[2-(4-fluorophenyl)-pyrazolo[1,5-a]pyridin-3-yl]-2-pyridinyl}amino)propyl]-2-pyrrolidinone]
9 | 0.7 µM | Fc1ccc(-c2nn3ccccc3c2-c2ccnc(NCCc3cnc[nH]3)c2)cc1 [Example 1, 4-[2-(4-Fluorophenyl)pyrazolo[1,5-a]pyridin-3-yl]-N-[2-(1H-imidazol-5-yl)ethyl]-2-pyridinamine]
10 | 1.3 µM | CSc1cccc2c(-c3cc(NC4CCCC4)ncn3)c(-c3ccc(F)cc3)nn12 [Example 230, N-cyclopentyl-6-[2-(4-fluorophenyl)-7-(methylthio)pyrazolo[1,5-a]pyridin-3-yl]pyrimidin-4-amine]
11 | 4 µM | CCCCCNc1cc(-c2c(-c3ccc(F)cc3)nn3ccccc23)ccn1 [Example 30, 4-[2-(4-Fluorophenyl)pyrazolo[1,5-a]pyridin-3-yl]-N-pentyl-2-pyridinamine]
12 | 0.2 µM | N#Cc1ccc2c(-c3ccnc(NC4CC4)n3)c(-c3ccc(F)cc3)nn2c1 [Example 24, N-Cyclopropyl-4-[6-cyano-2-(4-fluorophenyl)pyrazolo[1,5-a]pyridin-3-yl]-2-pyrimidinamine]
13 | 1.4 µM | Fc1ccc(-c2nn3ccc(N4CCCC4)cc3c2-c2ccnc(NC3CCCC3)n2)cc1 [Example 37, N-Cyclopentyl-4-[2-(4-fluorophenyl)-5-(1-pyrrolidinyl)pyrazolo[1,5-a]pyridin-3-yl]-2-pyrimidinamine]
14 | 1.2 µM | CC(C)Nc1cc(-c2c(-c3ccc(F)cc3)nn3cc(C(F)(F)F)ccc23)ccn1 [Example 13, 4-[2-(4-Fluorophenyl)-6-trifluoromethylpyrazolo[1,5-a]pyridin-3-yl]-N-isopropyl-2-pyridinamine]
15 | 5 µM | CCCCNc1nccc(-c2c(-c3ccc(F)cc3)nn3c(OCC(F)(F)F)cccc23)n1 [Example 60, N-Butyl-4-[2-(4-fluorophenyl)-7-(2,2,2-trifluoroethoxy)pyrazolo[1,5-a]pyridin-3-yl]-2-pyrimidinamine]
16 | 16 µM | CCOC(=O)c1ccc2c(-c3ccnc(NC4CC4)n3)c(-c3ccc(OC)cc3)nn2c1 [Example 97, Ethyl 3-[2-(cyclopropylamino)pyrimidin-4-yl]-2-(4-methoxyphenyl)-pyrazolo[1,5-a]pyridine-6-carboxylate]
17 | 1 µM | Cc1c(C(=O)NC2CC2)ccc2c(-c3ccnc(NC4CCCC4)n3)c(-c3ccc(F)cc3)nn12 [Example 83, 3-[2-(Cyclopentylamino)-4-pyrimidinyl]-N-cyclopropyl-2-(4-fluorophenyl)-7-methylpyrazolo[1,5-a]pyridine-6-carboxamide]
18 | 10 µM | Fc1ccc(-c2nn3ccccc3c2-c2ccnc(NCc3ccncc3)n2)cc1 [Example 29, 4-[2-(4-Fluorophenyl)pyrazolo[1,5-a]pyridin-3-yl]-N-(4-pyridinylmethyl)-2-pyrimidinamine]
19 | 5.3 µM | CNc1cc(-c2c(-c3ccc(F)cc3)nn3ccccc23)cc(F)n1 [Example 40, 6-Fluoro-4-[2-(4-fluorophenyl)-pyrazolo[1,5-a]pyridin-3-yl]-N-methyl-2-pyridinamine]
20 | 2 µM | OCCCNc1cc(-c2c(-c3ccc(F)cc3)nn3cc(C(F)(F)F)ccc23)ccn1 [Example 14, 3-(4-[2-(4-Fluorophenyl)-6-trifluoromethylpyrazolo[1,5-a]-pyridin-3-yl]-2-pyridinylamino)-1-propanol]
21 | 2.9 µM | Fc1ccc(-c2nn3ccccc3c2-c2cc(-c3ccccc3)nc(NC3CCCC3)n2)cc1 [Example 49, N-Cyclopentyl-4-[2-(4-fluorophenyl)pyrazolo[1,5-a]pyridin-3-yl]-6-phenyl-2-pyrimidinamine]
22 | 4.4 µM | CN(C)c1cc(-c2c(-c3ccc(F)cc3)nn3ccccc23)ccn1 [Example 11, 4-[2-(4-Fluorophenyl)pyrazolo[1,5-a]pyridin-3-yl]-N,N-dimethyl-2-pyridinamine]
23 | 2.5 µM | CCCCNc1nccc(-c2c(-c3ccc(F)cc3)nn3c(OCCF)cccc23)n1 [Example 57, N-Butyl-4-[7-(2-fluoroethoxy)-2-(4-fluorophenyl)pyrazolo[1,5-a]pyridin-3-yl]-2-pyrimidinamine]
24 | 3.9 µM | Fc1ccc(-c2nn3ccccc3c2-c2cc(F)nc(NCc3ccccc3)c2)cc1 [Example 12, N-Benzyl-6-fluoro-4-[2-(4-fluorophenyl)pyrazolo[1,5-a]pyridin-3-yl]-2-pyridinamine]
25 | 20 µM | NCCCNc1cc(-c2c(-c3ccc(F)cc3)nn3ccccc23)ccn1 [Example 4, N^1-4-[2-(4-Fluorophenyl)pyrazolo[1,5-a]pyridin-3-yl]-2-pyridinyl-1,3-propanediamine]
26 | 4.5 µM | Fc1ccc(-c2nn3cc(CNC4CCCC4)ccc3c2-c2ccnc(NC3CCCC3)n2)cc1 [Example 35, N-Cyclopentyl-4-[6-[(cyclopentylamino)methyl]-2-(4-fluorophenyl)-pyrazolo[1,5-a]pyridin-3-yl]-2-pyrimidinamine]
27 | 2 µM | Cc1ccc2c(-c3ccnc(NC4CCCC4)n3)c(-c3ccc(F)cc3)nn2c1 [Example 34, N-Cyclopentyl-4-[2-(4-fluorophenyl)-6-methylpyrazolo[1,5-a]pyridin-3-yl]-2-pyrimidinamine]
28 | 1.9 µM | CN(C)CCCNc1nccc(-c2c(-c3ccc(F)cc3)nn3cc(C(F)(F)F)ccc23)n1 [Example 90, N^1-{4-[2-(4-Fluorophenyl)-6-trifluoromethylpyrazolo[1,5-a]pyridin-3-yl]pyrimidin-2-yl}-N^3,N^3-dimethylpropane-1,3-diamine]
